IC50 data for 24 molecules are collected here from US7517873B2, “Substituted pyrimidodiazepines” (Hoffman-La Roche Inc., priority 2007, dated 2009).

The target in the assay is T1, GST-PLK1 (Homo sapiens, UniProt P53350).
T1 construct: Full-length, active GST-PLK1 is purified from Sf9 insect cells; made in house; host or cells: Sf9 insect cells
Briefly: Biochemical Characterization Assay: GST-PLK1 kinase HTRF assay with GST-p53 substrate. The conditions noted are these: full-length GST-PLK1, GST-p53 and ATP, 37° C. for 35 minutes, HTRF signal. The method, then:
Biochemical Characterization Assay
Full-length, active GST-PLK1 is purified from Sf9 insect cells, and full-length GST-p53 is purified from E. coli. Anti-phospho p53 antibody is from Cell Signaling Technology. Europium-conjugated anti-rabbit antibody is from PerkinElmer Life and Analytical Sciences. APC-conjugated anti-GST antibody is from Prozyme.
To assay compounds of the invention, two microliters of test compound (0.6 nM-4 mM) in DMSO or plain DMSO for control wells, 38 microliters of 20 mM HEPES pH 7, 50 mM NaCl, 10 mM MgCl2, 0.5 mM TCEP, 0.1 mM sodium orthovanadate, 0.1 mg/mL BSA, and 0.05% Triton X-100 (Kinase Assay Buffer) are added. […] Six microliters of GST-PLK1 (3 ug/mL) in Kinase Assay Buffer are then added and the solution incubated at 37° C. for 35 minutes. Six microliters of solution containing 43 mM EDTA to stop the reaction and a 1:600 dilution of anti-phospho-p53 antibody in 20 mM HEPES pH 7, 50 mM NaCl, and 0.5 mg/mL BSA (Antibody Binding Buffer) are added and the solution incubated at 37° C. for 30 minutes. […] The HTRF signal is read on an Envision reader from PerkinElmer Life and Analytical Sciences.
(In general: Time-resolved FRET reads energy transfer from a long-lived donor to a nearby acceptor.)

The structures appear in SMILES notation.

T1 sequence (P53350 whole entry): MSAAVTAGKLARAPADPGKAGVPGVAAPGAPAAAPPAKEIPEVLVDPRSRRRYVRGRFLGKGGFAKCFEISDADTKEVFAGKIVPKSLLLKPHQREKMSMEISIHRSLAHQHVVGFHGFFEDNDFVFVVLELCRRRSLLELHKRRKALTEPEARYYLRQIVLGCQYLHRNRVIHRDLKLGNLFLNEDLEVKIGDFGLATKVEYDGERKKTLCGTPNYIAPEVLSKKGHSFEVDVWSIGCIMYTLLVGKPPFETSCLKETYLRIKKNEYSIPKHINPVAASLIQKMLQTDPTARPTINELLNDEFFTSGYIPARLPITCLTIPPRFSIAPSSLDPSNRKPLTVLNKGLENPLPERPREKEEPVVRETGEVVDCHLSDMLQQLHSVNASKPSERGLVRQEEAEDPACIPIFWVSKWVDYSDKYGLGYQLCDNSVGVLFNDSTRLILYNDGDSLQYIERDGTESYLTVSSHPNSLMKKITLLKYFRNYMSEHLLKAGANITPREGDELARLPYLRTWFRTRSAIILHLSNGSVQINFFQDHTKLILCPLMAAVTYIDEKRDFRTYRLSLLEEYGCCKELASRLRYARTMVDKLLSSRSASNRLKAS

Broadly, the IC50 is the concentration that gives 50% inhibition. The molecule `COc1cc(C(=O)NC2CCN(C)CC2)ccc1Nc1ncc2c(n1)N(C1CCCC1)CC(C)C(=O)N2C` (racemic) [I-2, (rac)-4-(9-Cyclopentyl-5,7-dimethyl-6-oxo-6,7,8,9-tetrahydro-5H-pyrimido[4,5-b][1,4]diazepin-2-ylamino)-3-methoxy-N-(1-methyl-piperidin-4-yl)-benzamide] yielded an IC50 below 500 nM.

With `COc1cc(C(=O)NC2CCN(C)CC2)ccc1Nc1ncc2c(n1)N(C1CCCCC1)CCC(=O)N2` [I-29, 4-(9-Cyclohexyl-6-oxo-6,7,8,9-tetrahydro-5H-pyrimido[4,5-b][1,4]diazepin-2-ylamino)-3-methoxy-N-(1-methyl-piperidin-4-yl)-benzamide], the IC50 lay in the range of 500 to 5000 nM.

The molecule `CCC1CN(C2CCCC2)c2nc(Nc3ccc(C(=O)NC4CCN(C)CC4)cc3OC)ncc2N(C)C1=O` (racemic) [I-13, (rac)-4-(9-Cyclopentyl-7-ethyl-5-methyl-6-oxo-6,7,8,9-tetrahydro-5H-pyrimido[4,5-b][1,4]diazepin-2-ylamino)-3-methoxy-N-(1-methyl-piperidin-4-yl)-benzamide] had an IC50 below 500 nM.

`COc1cc(C(=O)N2CCCCC2)ccc1Nc1ncc2c(n1)N(C1CCCCC1)CCC(=O)N2` [I-32, 9-Cyclohexyl-2-[2-methoxy-4-(piperidine-1-carbonyl)-phenylamino]-5,7,8,9-tetrahydro-pyrimido[4,5-b][1,4]diazepin-6-one] registered an IC50 above 5000 nM.

`CC1CN(C2CCCC2)c2nc(Nc3cccc(C(=O)NCCN(C)C)c3)ncc2N(C)C1=O` (racemic) [I-93, (rac)-3-(9-Cyclopentyl-5,7-dimethyl-6-oxo-6,7,8,9-tetrahydro-5H-pyrimido[4,5-b][1,4]diazepin-2-ylamino)-N-(2-dimethylamino-ethyl)-benzamide]: the 50% inhibitory concentration (IC50) lay within 500 to 5000 nM.

Turning to `CN1C(=O)C2(CC2)CN(C2CCCC2)c2nc(Nc3ccc(C(=O)NC4CCOCC4)cc3)ncc21` [I-63, 4-[(9-Cyclopentyl-6,7,8,9-tetrahydro-5-methyl-6-oxospiro[5H-pyrimido[4,5-b][1,4]diazepine-7,1′-cyclopropan]-2-yl)amino]-N-(tetrahydropyran-4-yl)benzamide], the IC50 was below 500 nM.

In the case of `CC1CN(C2CCCC2)c2nc(Nc3ccc(C(=O)Nc4cccnc4)c(Cl)c3)ncc2N(C)C1=O` (racemic) [I-82, (rac)-2-Chloro-4-(9-cyclopentyl-5,7-dimethyl-6-oxo-6,7,8,9-tetrahydro-5H-pyrimido[4,5-b][1,4]diazepin-2-ylamino)-N-pyridin-3-yl-benzamide], the IC50 was above 5000 nM.

`COc1cc(C(=O)NC2CCN(C)CC2)ccc1Nc1ncc2c(n1)N(C(C)C)CCC(=O)N2C` [I-43, 4-(9-Isopropyl-5-methyl-6-oxo-6,7,8,9-tetrahydro-5H-pyrimido[4,5-b][1,4]diazepin-2-ylamino)-3-methoxy-N-(1-methyl-piperidin-4-yl)-benzamide] gave an IC50 below 500 nM.

As for `COc1cc(C(=O)NC2CCN(C)CC2)ccc1Nc1ncc2c(n1)N(c1ccccc1)CC(C)C(=O)N2C` (racemic) [I-51, (rac)-4-(5,7-Dimethyl-6-oxo-9-phenyl-6,7,8,9-tetrahydro-5H-pyrimido[4,5-b][1,4]diazepin-2-ylamino)-3-methoxy-N-(1-methyl-piperidin-4-yl)-benzamide], the IC50 was 500 to 5000 nM.

`COc1cc(C(=O)NC2CCN(C)CC2)ccc1Nc1ncc2c(n1)N(C1CCCC1)CCC(=O)N2` [I-21, 4-(9-Cyclopentyl-6-oxo-6,7,8,9-tetrahydro-5H-pyrimido[4,5-b][1,4]diazepin-2-ylamino)-3-methoxy-N-(1-methyl-piperidin-4-yl)-benzamide]: the IC50 lay in the range of 500 to 5000 nM.

`COc1cc(C(=O)NC2CCN(C)CC2)ccc1Nc1ncc2c(n1)N(C1CCC1)CCC(=O)N2C` [I-24, 4-(9-Cyclobutyl-5-methyl-6-oxo-6,7,8,9-tetrahydro-5H-pyrimido[4,5-b][1,4]diazepin-2-ylamino)-3-methoxy-N-(1-methyl-piperidin-4-yl)-benzamide] came in with an IC50 below 500 nM.

`COc1cc(C(=O)NC2CCN(C)CC2)ccc1Nc1ncc2c(n1)N(C1CCCC1)CC(CCO)C(=O)N2C` (racemic) [I-49, (rac)-4-[9-Cyclopentyl-7-(2-hydroxy-ethyl)-5-methyl-6-oxo-6,7,8,9-tetrahydro-5H-pyrimido[4,5-b][1,4]diazepin-2-ylamino]-3-methoxy-N-(1-methyl-piperidin-4-yl)-benzamide] yielded an IC50 of 500 to 5000 nM.

Regarding `COc1cc(C(=O)NC2CCN(C)CC2)ccc1Nc1ncc2c(n1)N(C1CCC1)CC(C)C(=O)N2C` (racemic) [I-52, (rac)-4-(9-Cyclobutyl-5,7-dimethyl-6-oxo-6,7,8,9-tetrahydro-5H-pyrimido[4,5-b][1,4]diazepin-2-ylamino)-3-methoxy-N-(1-methyl-piperidin-4-yl)-benzamide], the IC50 is below 500 nM.

`COCCCNC(=O)c1cccc(Nc2ncc3c(n2)N(C2CCCC2)CC(C)C(=O)N3C)c1` (racemic) [I-90, (rac)-3-(9-Cyclopentyl-5,7-dimethyl-6-oxo-6,7,8,9-tetrahydro-5H-pyrimido[4,5-b][1,4]diazepin-2-ylamino)-N-(3-methoxy-propyl)-benzamide] came in with a concentration for half-maximal inhibition (IC50) of 500 to 5000 nM.

Consider `COc1cc(C(=O)NC2CCN(C)CC2)ccc1Nc1ncc2c(n1)N(C1CCCC1)C[C@H](C)C(=O)N2C` [I-2b, 7S-4-(9-cyclopentyl-5,7-dimethyl-6-oxo-6,7,8,9-tetrahydro-5H-pyrimido[4,5-b][1,4]diazepin-2-ylamino)-3-methoxy-N-(1-methyl-piperidin-4-yl)-benzamide], for which the IC50 was below 500 nM.

As for `COc1ccc(NC(=O)c2ccccc2)cc1Nc1ncc2c(n1)N(C1CCCC1)CC(C)C(=O)N2C` (racemic) [I-78, (rac)-N-[3-(9-Cyclopentyl-5,7-dimethyl-6-oxo-6,7,8,9-tetrahydro-5H-pyrimido[4,5-b][1,4]diazepin-2-ylamino)-4-methoxy-phenyl]-benzamide], the IC50 fell in the range of 500 to 5000 nM.

`COc1ccc(NC(=O)C2CCN(C(C)=O)CC2)cc1Nc1ncc2c(n1)N(C1CCCC1)CC(C)C(=O)N2C` (racemic) [I-80, (rac)-1-Acetyl-piperidine-4-carboxylic acid [3-(9-cyclopentyl-5,7-dimethyl-6-oxo-6,7,8,9-tetrahydro-5H-pyrimido[4,5-b][1,4]diazepin-2-ylamino)-4-methoxy-phenyl]-amide] returned a concentration for half-maximal inhibition (IC50) of 500 to 5000 nM.

`CC1CN(C2CCCC2)c2nc(Nc3cccc(C(=O)NC4CCN(C)CC4)c3)ncc2N(C)C1=O` (racemic) [I-69, (rac)-3-(9-Cyclopentyl-5,7-dimethyl-6-oxo-6,7,8,9-tetrahydro-5H-pyrimido[4,5-b][1,4]diazepin-2-ylamino)-N-(1-methyl-piperidin-4-yl)-benzamide] returned a half-inhibitory concentration (IC50) of 500 to 5000 nM.

In the case of `CC1CN(C2CCCC2)c2nc(Nc3ccc(C(=O)NCCCN(C)C)c(Cl)c3)ncc2N(C)C1=O` (racemic) [I-83, (rac)-2-Chloro-4-(9-cyclopentyl-5,7-dimethyl-6-oxo-6,7,8,9-tetrahydro-5H-pyrimido[4,5-b][1,4]diazepin-2-ylamino)-N-(3-dimethylamino-propyl)-benzamide], the half-maximal inhibitory concentration (IC50) lay within 500 to 5000 nM.

In the case of `Cc1cc(C(=O)NC2CCN(C)CC2)ccc1Nc1ncc2c(n1)N(C1CCCC1)CC(C)C(=O)N2C` (racemic) [I-8, (rac)-4-(9-Cyclopentyl-5,7-dimethyl-6-oxo-6,7,8,9-tetrahydro-5H-pyrimido[4,5-b][1,4]diazepin-2-ylamino)-3-methyl-N-(1-methyl-piperidin-4-yl)-benzamide], the IC50 was below 500 nM.

`CN1CCC(NC(=O)c2ccc(Nc3ncc4c(n3)N(C3CCCC3)CC(C)(C)C(=O)N4C)cc2)CC1` [I-50, 4-(9-Cyclopentyl-5,7,7-trimethyl-6-oxo-6,7,8,9-tetrahydro-5H-pyrimido[4,5-b][1,4]diazepin-2-ylamino)-N-(1-methyl-piperidin-4-yl)-benzamide] showed an IC50 below 500 nM.

Molecule `COc1cc(C(=O)NC2CCN(C)CC2)ccc1Nc1ncc2c(n1)N(C1CCCCC1)CC(C)C(=O)N2` (racemic) [I-18, (rac)-4-(9-Cyclohexyl-7-methyl-6-oxo-6,7,8,9-tetrahydro-5H-pyrimido[4,5-b][1,4]diazepin-2-ylamino)-3-methoxy-N-(1-methyl-piperidin-4-yl)-benzamide] gave an IC50 of 500 to 5000 nM.

In the case of `COc1cc(C(=O)NC2CCN(Cc3ccccc3)CC2)ccc1Nc1ncc2c(n1)N(C1CCCC1)CC(C)C(=O)N2C` (racemic) [I-9, (rac)-N-(1-Benzyl-piperidin-4-yl)-4-(9-cyclopentyl-5,7-dimethyl-6-oxo-6,7,8,9-tetrahydro-5H-pyrimido[4,5-b][1,4]diazepin-2-ylamino)-3-methoxy-benzamide], the IC50 is below 500 nM.

In the case of `COc1cc(C(=O)NC2CCN(C)CC2)ccc1Nc1ncc2c(n1)N(C1CCOCC1)CC(C)C(=O)N2C` (racemic) [I-45, (rac)-4-[5,7-Dimethyl-6-oxo-9-(tetrahydro-pyran-4-yl)-6,7,8,9-tetrahydro-5H-pyrimido[4,5-b][1,4]diazepin-2-ylamino]-3-methoxy-N-(1-methyl-piperidin-4-yl)-benzamide], the IC50 was below 500 nM.
